From article PMC7280082 (Acta Pharmaceutica Sinica. B, 2019)

What was measured:
WT HIV-1 (IIIB) = assay: microbe, parasite or virus in culture; format: cell-based; conditions: for EC50: Human immunodeficiency virus 1, IIIB, MT4, read-out: EC50 IIIB; for SI IIIB: ratio of CC50/EC50
HIV-2 strain (ROD) = assay: Anti-HIV-2; format: cell-based; conditions: for EC50: Human immunodeficiency virus 2, MT4, read-out: EC50 ROD; for SI ROD: ratio of CC50/EC50
[1] = system: HIV-1 L100I mutant strain; assay: microbe, parasite or virus in culture; format: cell-based; conditions: for SI L100I: CC50/EC50; for EC50: Human immunodeficiency virus 1, MT4, read-out: EC50 L100I; for RF L100I: ratio of EC50 (resistant viral strain)/EC50 (wild-type viral strain)
[2] = system: HIV-1 K103N mutant strain; assay: microbe, parasite or virus in culture; format: cell-based; conditions: for SI K103N: CC50/EC50; for EC50: Human immunodeficiency virus 1, MT4, read-out: EC50 K103N; for RF K103N: ratio of EC50 (resistant viral strain)/EC50 (wild-type viral strain)
[3] = system: HIV-1 Y181C mutant strain; assay: microbe, parasite or virus in culture; format: cell-based; conditions: for SI Y181C: CC50/EC50; for EC50: Human immunodeficiency virus 1, MT4, read-out: EC50 Y181C; for RF Y181C: ratio of EC50 (resistant viral strain)/EC50 (wild-type viral strain)
[4] = system: HIV-1 Y188L mutant strain; assay: microbe, parasite or virus in culture; format: cell-based; conditions: for SI Y188L: CC50/EC50; for EC50: Human immunodeficiency virus 1, MT4, read-out: EC50 Y188L; for RF Y188L: ratio of EC50 (resistant viral strain)/EC50 (wild-type viral strain)
[5] = system: HIV-1 E138K mutant strain; assay: microbe, parasite or virus in culture; format: cell-based; conditions: for SI E138K: CC50/EC50; for EC50: Human immunodeficiency virus 1, MT4, read-out: EC50 E138K; for RF E138K: ratio of EC50 (resistant viral strain)/EC50 (wild-type viral strain)
[6] = system: HIV-1 F227L + V106A double-mutant strain; assay: microbe, parasite or virus in culture; format: cell-based; conditions: for SI F227L + V106A: CC50/EC50; for EC50: Human immunodeficiency virus 1, MT4, read-out: EC50 F227L + V106A; for RF F227L + V106A: ratio of EC50 (resistant viral strain)/EC50 (wild-type viral strain)
[7] = system: HIV-1 RES056 (K103N + Y181C) double-mutant strain; assay: microbe, parasite or virus in culture; format: cell-based; conditions: for SI RES056: CC50/EC50; for EC50: Human immunodeficiency virus 1, MT4, read-out: EC50 RES056; for RF RES056: ratio of EC50 (resistant viral strain)/EC50 (wild-type viral strain)
WT HIV-1 RT = WT HIV-1 RT (Human immunodeficiency virus type 1 group M subtype B, UniProt P03366); assay: Recombinant HIV-1 RT inhibitory assay; format: biochemical
[8] = Cytotoxicity in mock-infected MT-4 cell cultures, MTT method; conditions: human, mock-infected MT-4 cells

SMILES	EC50 (WT HIV-1 (IIIB))	SI IIIB (WT HIV-1 (IIIB))	EC50 (HIV-2 strain (ROD))	SI ROD (HIV-2 strain (ROD))	SI L100I [1]	EC50 [1]	RF L100I [1]	EC50 [2]	RF K103N [2]	EC50 [3]	RF Y181C [3]	EC50 [4]	RF Y188L [4]	EC50 [5]	RF E138K [5]	EC50 [6]	RF F227L + V106A [6]	EC50 [7]	RF RES056 [7]	CC50 at 5 days [8]	also measured
Cc1cc(-c2ccc(F)cc2)cc(C)c1Oc1nc(NC2CCN(Cc3ccc(C(N)=O)cc3)CC2)nc2ccsc12 [Compound 24, 4-((4-((4-((4′-Fluoro-3,5-dimethyl-[1,1′-biphenyl]-4-yl)oxy)thieno[3,2-d]pyrimidin-2-yl)amino)piperidin-1-yl)methyl)benzamide]	12.8 ± 2.73 nM	532	≥ 5660 nM	<1	111	61.1 ± 9.35 nM	4.8	11.7 ± 1.09 nM	0.9	36.1 ± 1.21 nM	2.8	51.4 ± 9.6 nM	4.0	34.8 ± 10.6 nM	2.7	56.6 ± 13.7 nM	4.4	575 ± 120 nM	44.9	6800 ± 3130 nM	SI K103N [2]: 578; SI Y181C [3]: 189; SI Y188L [4]: 132; SI E138K [5]: 195; SI F227L + V106A [6]: 120; SI RES056 [7]: 12; IC50 (WT HIV-1 RT): 171 ± 10 nM
Cc1cc(-c2ccc(F)cc2)cc(C)c1Oc1nc(NC2CCN(Cc3ccc(S(N)(=O)=O)cc3)CC2)nc2ccsc12 [Compound 23, 4-((4-((4-((4′-Fluoro-3,5-dimethyl-[1,1′-biphenyl]-4-yl)oxy)thieno[3,2-d]pyrimidin-2-yl)amino)piperidin-1-yl)methyl)benzenesulfonamide]	11.3 ± 2.07 nM	1492	3280 ± 1260 nM	5	372	45.4 ± 5.26 nM	4.0	11.7 ± 1.03 nM	1.0	44.8 ± 5.26 nM	4.0	51.8 ± 8.47 nM	4.6	30.9 ± 5.26 nM	2.7	46.6 ± 15.5 nM	4.1	388 ± 76.2 nM	34.3	16900 ± 4770 nM	SI K103N [2]: 1441; SI Y181C [3]: 377; SI Y188L [4]: 326; SI E138K [5]: 547; SI F227L + V106A [6]: 363; SI RES056 [7]: 43; IC50 (WT HIV-1 RT): 211 ± 15 nM
Cc1cc(-c2ccco2)cc(C)c1Oc1nc(NC2CCN(Cc3ccc(S(N)(=O)=O)cc3)CC2)nc2ccsc12 [Compound 11, 4-((4-((4-(4-(Furan-2-yl)-2,6-dimethylphenoxy)thieno[3,2-d]pyrimidin-2-yl)amino)piperidin-1-yl)methyl)benzenesulfonamide]	17.7 ± 4.83 nM	762	4150 ± 1780 nM	3	151	89.3 ± 23 nM	5.0	20.7 ± 2.75 nM	1.2	63.5 ± 8.75 nM	3.6	53.4 ± 2.15 nM	3.0	49.9 ± 0.35 nM	2.8	85.7 ± 9.71 nM	4.8	565 ± 22.5 nM	31.9	13500 ± 3940 nM	SI K103N [2]: 651; SI Y181C [3]: 213; SI Y188L [4]: 253; SI E138K [5]: 271; SI F227L + V106A [6]: 158; SI RES056 [7]: 24; IC50 (WT HIV-1 RT): 243 ± 37 nM
Cc1cc(-c2ccsc2)cc(C)c1Oc1nc(NC2CCN(Cc3ccc(C(N)=O)cc3)CC2)nc2ccsc12 [Compound 18, 4-((4-((4-(2,6-Dimethyl-4-(thiophen-3-yl)phenoxy)thieno[3,2-d]pyrimidin-2-yl)amino)piperidin-1-yl)methyl)benzamide]	240 ± 94.3 nM	71	> 17000 nM	<1	18	925 ± 286 nM	3.8	171 ± 56.9 nM	0.7	741 ± 154 nM	3.1	628 ± 49.6 nM	2.6	739 ± 318 nM	3.1	854 ± 186 nM	3.6	4520 ± 1450 nM	18.8	17000 ± 12900 nM	SI K103N [2]: 99; SI Y181C [3]: 23; SI Y188L [4]: 27; SI E138K [5]: 23; SI F227L + V106A [6]: 20; SI RES056 [7]: 4
Cc1ccnc2c1NC(=O)c1cccnc1N2C1CC1 [NVP, Nevirapine, reference compound]	186 ± 59 nM	–	> 9510 nM	–	–	1400 ± 828 nM	7.5	7820 ± 556 nM	42	> 9510 nM	NA (>51.1)	> 9510 nM	NA (>51)	115 ± 24.5 nM	0.6	> 9510 nM	NA (>51.1)	> 9510 nM	NA (>51.1)	> 9510 nM	–
